These results are taken from US12458643B2, “Antidepressant/anxiolytic drug in which PAC1 receptor antagonist is used” (KAGOSHIMA UNIVERSITY, priority 2020, dated 2025).

Test [1] has as its system normal mice. The test is described as follows: Open field test in normal mice. The test is classed as in vivo, mouse. Particulars: normal male C57BL/6J mice, 30 mg/kg i.p., 60 min after administration, 10 min test. Here is the method:
The effects of PA-8 and PA-81004 on normal mice were evaluated by an open field test (test to measure spontaneous locomotion in a novel environment by exploiting the properties of mice to do exploratory behavior in such a novel environment, and using a 40 cm×40 cm box of 30 cm in height; spontaneous motor activity is measured from the total distance traveled; in this test, anxiety-like behavior is evaluated by exploiting the properties of mice to prefer to stay near walls and avoid light environments, and measuring a time spent in a center zone (20 cm×20 cm) or the number of entries thereto). Male C57BL/6J mice (8 to 12 weeks old) were acclimatized to a laboratory (illuminance: 40 lx) for 60 minutes. Then, a vehicle (10% DMSO solution; dissolved in saline; n=11), PA-8 (30 mg/kg; n=9) or PA-81004 (30 mg/kg; n=12) was intraperitoneally administered thereto (0.1 mL/10 g). After a lapse of 60 minutes after administration, the test was conducted for 10 minutes. The results are shown in FIG. 1 (A: total distance traveled, B: the number of center zone entries, C: time spent in the center zone). The effects of PA-9 and PA-915 on normal mice were evaluated by the open field test. Male C57BL/6J mice (8 to 12 weeks old) were acclimatized to a laboratory (illuminance: 40 lx) for 60 minutes. Then, a vehicle (10% DMSO solution; dissolved in saline; n=10), PA-9 (30 mg/kg; n=11) or PA-915 (30 mg/kg; n=10) was intraperitoneally administered thereto (0.1 mL/10 g). After a lapse of 60 minutes after administration, the test was conducted for 10 minutes. The results are shown in FIG. 5 (A: total distance traveled, B: the number of center zone entries, C: time spent in the center zone).

In test [2] the test system is single-restraint stress mice. The test is described as follows: Single-restraint stress-induced anxiety-like behavior, open field test. Conditions: 30 mg/kg i.p. 30 min before 30 min restraint; 10 min test. Type of test: in vivo, mouse. Here is the method:
Male C57BL/6J mice (8 to 12 weeks old) were acclimatized to a laboratory (illuminance: 40 lx) for 60 minutes. Then, a vehicle (10% DMSO solution; dissolved in saline; n=11), PA-8 (30 mg/kg; n=11) or PA-81004 (30 mg/kg; n=8) was intraperitoneally administered thereto (0.1 mL/10 g). After a lapse of 30 minutes after administration, restraint stress (stress caused by holding the mice in tubes of 2.8 cm in diameter with a hole for breathing) was applied thereto for 30 minutes. The mice were allowed to freely explore an open field cage for 10 minutes from immediately after the completion of restraint. Mice that freely behaved in a home cage for 30 minutes without being held and without accessing water and food were used as a control (n=10). The results are shown in FIG. 9 (A: total distance traveled, B: the number of center zone entries, C: time spent in the center zone). The data was indicated by mean±standard error. **P<0.01, *P<0.05 (One-way ANOVA followed by Tukey-Kramer test). […] Male C57BL/6J mice (8 to 12 weeks old) were acclimatized to a laboratory (illuminance: 40 lx) for 60 minutes. Then, a vehicle (10% DMSO solution; dissolved in saline; n=10), PA-9 (30 mg/kg; n=13) or PA-915 (30 mg/kg; n=12) was intraperitoneally administered thereto (0.1 mL/10 g). After a lapse of 30 minutes after administration, restraint stress (stress caused by holding the mice in tubes of 2.8 cm in diameter with a hole for breathing) was applied thereto for 30 minutes. The mice were allowed to freely explore an open field cage for 10 minutes from immediately after the completion of restraint. Mice that freely behaved in a home cage for 30 minutes without being held and without accessing water and food were used as a control (n=10). The results are shown in FIG. 11 (A: total distance traveled, B: the number of center zone entries, C: time spent in the center zone). The data was indicated by mean±standard error. **P<0.01, *P<0.05 (One-way ANOVA followed by Tukey-Kramer test).

For test [3] the following is noted: disclosed in Patent Literature 2 (WO 2019/065794); cited from earlier work.
Test [4] relates to chronically corticosterone-administered model mice. Kind of test: Repeated corticosterone administration, forced swim test. Type of test: in vivo, mouse. Conditions: male mice, corticosterone 20 mg/kg s.c. 21 days; single i.p. PA-915 30 mg/kg, ketamine 20 mg/kg, fluoxetine 20 mg/kg; 24 hours later. Here is the method: Chronically corticosterone-administered model mice are model mice that mimic high plasma corticosterone levels associated with the hyperactivation of the hypothalamic-pituitary-adrenal system under pathological stress, and are generally used as depression model mice.
A vehicle (0.5% carboxymethylcellulose solution) or corticosterone (20 mg/kg) was subcutaneously administered (0.1 mL/10 g) to male C57BL/6J mice (6 weeks old) for 21 days. A vehicle (10% DMSO solution; dissolved in saline; n=11), PA-915 (30 mg/kg; n=13), ketamine (20 mg/kg; n=13) or fluoxetine (20 mg/kg; n=15) was intraperitoneally administered thereto (0.1 mL/10 g) 3 hours after administration on the 21st day. The mice were forced to swim for 6 minutes 24 hours later, and an immobility time was measured. Mice given the vehicle by repeated administration without repeated corticosterone administration were used as a control (n=11). The data was indicated by mean±standard error. **P<0.01 (One-way ANOVA followed by Tukey-Kramer test).
A vehicle (0.5% carboxymethylcellulose solution) or corticosterone (20 mg/kg) was subcutaneously administered (0.1 mL/10 g) to female C57BL/6J mice (9 weeks old) for 21 days. […] The mice were forced to swim for 6 minutes 24 hours later, and an immobility time was measured. […]

Regarding `C=CCOc1ccc(C2CC(=O)Nc3nc(N)[nH]c(=O)c32)cc1OC` (stereo not shown) [PA-8], in test [1], the “pharmacological action in open field test (total distance traveled, center zone entries, time in center zone)” value (“pharmacological action” below) is reported as “no pharmacological action”. Moreover, the “effect on single-restraint stress-induced anxiety-like behavior (open field test)” value (“effect … (open field test)” below) in test [2] is on record as “improving effects”. For the same molecule, the analgesic action result in test [3] is recorded as “analgesic action”.

With `CNC1(c2ccccc2Cl)CCCCC1=O` (stereo not shown) [ketamine], the “effect on depressive-like behavior (forced swim test, immobility time)” value in test [4] is “improved depressive-like behavior”.

`O=C(NCCc1c[nH]cn1)C1CC(=O)N(c2n[nH]c3ccccc23)C1` (stereo not shown) [PA-9]: the “pharmacological action” value in test [1] is “no pharmacological action”. Besides, the “effect … (open field test)” value in test [2] was “improving effects”. Further, the analgesic action result in test [3] is listed as “analgesic action”.

As to `Nc1nc2c(c(=O)[nH]1)C(c1cccc(OC(F)(F)F)c1)CC(=O)N2` (stereo not shown) [PA-81004, 2-Amino-5-(3-trifluoromethoxyphenyl)-5,8-dihydro-3H,6H-pyrido[2,3-d]pyrimidine-4,7-dione], the “pharmacological action” value in test [1] is “no pharmacological action”. The “effect … (open field test)” value in test [2] was “improving effects”.

On to `CNCCC(Oc1ccc(C(F)(F)F)cc1)c1ccccc1` (stereo not shown) [fluoxetine], for which the “effect on depressive-like behavior (forced swim test, immobility time)” value in test [4] is recorded as “exhibited no improving effect”.
